Data published in US20240207427A1, “SELECTIVE DRUG RELEASE FROM INTERNALIZED CONJUGATES OF BIOLOGICALLY ACTIVE COMPOUNDS” (priority 2021, published 2024).
Where two headings read alike, the source gives them in different places.

What was measured:
Type in all cases: cell-based
[1] = system: anaplastic large cell lymphoma cells (DELBVR); assay: In vitro potency (CellTiter-Glo, 96 h), DELBVR
Procedure, shortened: (§1)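 Growth inhibition after 96 h at 37 °C with test article, measured by luminescence; cells in RPMI 1640, 20% FBS.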

[2] = system: B-lymphocyte cancer cells (SU-DHL4); assay: In vitro potency (CellTiter-Glo, 96 h), SU-DHL-4; details: Homo sapiens, SU-DHL-4, 96 h
Procedure, shortened: as §1

[3] = system: pancreatic cancer cells (BxPC3); assay: In vitro potency (CellTiter-Glo, 96 h), BxPC3; details: Homo sapiens, BXPC-3, 96 h
Procedure, shortened: (§2)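 Log-phase cells were seeded for 24 h in RPMI 1640 with 20% FBS, then exposed to serially diluted antibody-drug conjugates or free camptothecin drug for 4 days at 37 °C. Growth inhibition was read by luminescence, and IC50 values were reported in ng/mL and nmol/L.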

[4] = system: non-small-cell lung cancer cells (Calu1); assay: In vitro potency (CellTiter-Glo, 96 h), Calu1; details: Homo sapiens, Calu-1, 96 h
Protocol: (§3) In vitro potency was assessed on multiple cancer cell lines. All cell lines were authenticated by STR profiling at IDEXX Bioresearch and cultured for no more than 2 months after resuscitation. Cells cultured in log-phase growth were seeded for 24 hours in 96-well plates containing […] RPMI 1640 supplemented with 20% FBS. Serial dilutions of antibody-drug conjugates in cell culture media were prepared at 4× working concentrations, and 50 μL of each dilution was added to the 96-well plates. Following addition of test articles, cells were incubated with test articles for 4 days at 37 0° C. After 96 hours, growth inhibition was assessed by CellTiterGlo® (Promega, Madison, WI) and luminescence was measured on a plate reader.
(§4) In Table 7, IC50 values for ADCs are given in ng/mL. Cell viability was determined by CellTiter-Glo staining after 96 h exposure to ADC. ND=Not Determined. Ag2 is an antibody targeting a ubiquitous and readily internalizable antigen. The cancer cell lines tested are renal carcinoma cells (786-0), melanoma cells (A2058), pancreatic cancer cells (BxPC3), non-small-cell lung cancer cells (Calu1), anaplastic large cell lymphoma cells (DEL, DELBVR, Karpas299), Hodgkin's lymphoma cells (L540cy), (Ls174T), breast cancer cells (MDA-MB-231), acute myeloid leukemia cells (MOLM-13), and B-lymphocyte cancer cells (SU-DHL4).
as §3, with “FBS.” for “FBS. Serial dilutions of antibody-drug conjugates in cell culture media were prepared at 4× working concentrations, and 50 μL of each dilution was added to the 96-well plates.”
(§5) Cell viability was determined by CellTiter-Glo staining after 96 h exposure to the compound. ND=Not Determined. The cancer cell lines tested are renal carcinoma cells (786-0), melanoma cells (A2058), pancreatic cancer cells (BxPC3), non-small-cell lung cancer cells (Calu1), anaplastic large cell lymphoma cells (DEL, DELBVR, Karpas299), Hodgkin's lymphoma cells (L540cy), (Ls 174T), breast cancer cells (MDA-MB-231), acute myeloid leukemia cells (MOLM-13), B-lymphocyte cancer cells (SU-DHL4), multiple myeloma cells (MM.1R), (U266), and melanoma cells (SK-MEL-5).
as §3, with “37°” for “37 0°”
(§6) In the following Tables IC50 values for ADCs and CPT free drugs are given in ng/mL and nmol/L concentrations. Cell viability was determined by CellTiter-Glo staining after 96 h exposure to ADC or CPT free drug.
(§7) Cell viability was determined by CellTiter-Glo staining after 96 h exposure to ADC. ND=Not Determined.

melanoma cells (A2058) = assay: In vitro potency (CellTiter-Glo, 96 h), A2058; details: Homo sapiens, A2058, 96 h
Protocol: as §3, §4
as §3, with “FBS.” for “FBS. Serial dilutions of antibody-drug conjugates in cell culture media were prepared at 4× working concentrations, and 50 μL of each dilution was added to the 96-well plates.”
as §5
as §3, with “37°” for “37 0°”
as §6, §7

[5] = system: breast cancer cells (MDA-MB-231); assay: In vitro potency (CellTiter-Glo, 96 h), MDA-MB-231; details: Homo sapiens, MDA-MB-231, 96 h
Procedure, shortened: as §1

[6] = system: anaplastic large cell lymphoma cells (DEL); assay: In vitro potency (CellTiter-Glo, 96 h), DEL
Procedure, shortened: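 Cells in log-phase growth seeded 24 h in RPMI 1640 with 20% FBS, then exposed to serially diluted ADC or CPT free drug for 96 h at 37 °C. Growth inhibition read by CellTiter-Glo luminescence; IC50 reported in ng/mL or nmol/L.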

[7] = system: Hodgkin's lymphoma cells (L540cy); assay: In vitro potency (CellTiter-Glo, 96 h), L540cy
Procedure, shortened: as §1

[8] = system: acute myeloid leukemia cells (MOLM-13); assay: In vitro potency (CellTiter-Glo, 96 h), MOLM-13; details: Homo sapiens, MOLM-13, 96 h
Procedure, shortened: as §2

[9] = system: renal carcinoma cells (786-O); assay: In vitro potency (CellTiter-Glo, 96 h), 786-O; details: Homo sapiens, 786-0, 96 h
Procedure, shortened: as §1

[10] = system: anaplastic large cell lymphoma cells (Karpas299); assay: In vitro potency (CellTiter-Glo, 96 h), Karpas299; details: Homo sapiens, KARPAS-299, 96 h
Procedure, shortened: as §1

Ls174T cells = assay: In vitro potency (CellTiter-Glo, 96 h), Ls174T; details: Homo sapiens, LS174T, CPT free drugs
Procedure, shortened: as §2

[11] = CPT free drugs, Table 24, CellTiter-Glo after 96 h exposure, read-out: IC50 (nmol/L) DELBVR
[12] = CPT free drugs, Table 24, CellTiter-Glo after 96 h exposure, read-out: IC50 (nmol/L) SU-DHL-4
[13] = CPT free drugs, Table 24, CellTiter-Glo after 96 h exposure, read-out: IC50 (nmol/L) BxPC3
[14] = CPT free drugs, Table 24, CellTiter-Glo after 96 h exposure, read-out: IC50 (nmol/L) Calu1
[15] = CPT free drugs, Table 24, CellTiter-Glo after 96 h exposure, read-out: IC50 (nmol/L) A2058
[16] = CPT free drugs, Table 24, CellTiter-Glo after 96 h exposure, read-out: IC50 (nmol/L) MDAMB231
[17] = CPT free drugs, Table 24, CellTiter-Glo after 96 h exposure, read-out: IC50 (nmol/L) DEL
[18] = CPT free drugs, Table 24, CellTiter-Glo after 96 h exposure, read-out: IC50 (nmol/L) L540cy
[19] = CPT free drugs, Table 24, CellTiter-Glo after 96 h exposure, read-out: IC50 (nmol/L) MOLM-13
[20] = CPT free drugs, Table 24, CellTiter-Glo after 96 h exposure, read-out: IC50 (nmol/L) 786-O
[21] = CPT free drugs, Table 24, CellTiter-Glo after 96 h exposure, read-out: IC50 (nmol/L) Karpas299

CC[C@@]1(O)C(=O)OCc2c1cc1n(c2=O)Cc2c-1nc1ccccc1c2CN [Compound 2ae]
IC50 [1, 11]: 5 nmol/L
IC50 [2, 12]: 8 nmol/L
IC50 [3, 13]: 23 nmol/L
IC50 [4, 14]: 65 nmol/L
IC50 (melanoma cells (A2058); [15]): 5 nmol/L
IC50 [5, 16]: 107 nmol/L
IC50 [6, 17]: 5 nmol/L
IC50 [7, 18]: 6 nmol/L
IC50 [8, 19]: 191 nmol/L
IC50 [9, 20]: 17 nmol/L
IC50 [10, 21]: 14 nmol/L

CC[C@@]1(O)C(=O)OCc2c1cc1n(c2=O)Cc2c-1nc1cc3c(cc1c2CN)OCCO3 [Compound 2af]
IC50 ([1]; read-out: IC50 (nmol/L) DELBVR, CPT free drugs, Table 24, CellTiter-Glo after 96 h exposure): 1 nmol/L
IC50 ([2]; read-out: IC50 (nmol/L) SU-DHL-4, CPT free drugs, Table 24, CellTiter-Glo after 96 h exposure): 2 nmol/L
IC50 ([3]; read-out: IC50 (nmol/L) BxPC3, CPT free drugs, Table 24, CellTiter-Glo after 96 h exposure): 7 nmol/L
IC50 ([4]; read-out: IC50 (nmol/L) Calu1): 57 nmol/L
IC50 (melanoma cells (A2058); read-out: IC50 (nmol/L) A2058): 2 nmol/L
IC50 ([5]; read-out: IC50 (nmol/L) MDAMB231, CPT free drugs, Table 24, CellTiter-Glo after 96 h exposure): 39 nmol/L
IC50 ([6]; read-out: IC50 (nmol/L) DEL, CPT free drugs, Table 24, CellTiter-Glo after 96 h exposure): 1 nmol/L
IC50 ([7]; read-out: IC50 (nmol/L) L540cy, CPT free drugs, Table 24, CellTiter-Glo after 96 h exposure): 3 nmol/L
IC50 ([8]; read-out: IC50 (nmol/L) MOLM-13, CPT free drugs, Table 24, CellTiter-Glo after 96 h exposure): 32 nmol/L
IC50 ([9]; read-out: IC50 (nmol/L) 786-O, CPT free drugs, Table 24, CellTiter-Glo after 96 h exposure): 7 nmol/L
IC50 ([10]; read-out: IC50 (nmol/L) Karpas299, CPT free drugs, Table 24, CellTiter-Glo after 96 h exposure): 6 nmol/L

CC[C@@]1(O)C(=O)OCc2c1cc1n(c2=O)Cc2c-1nc1ccc3c(c1c2CN)OCCO3 [Compound 2ag]
IC50 [1, 11]: 13 nmol/L
IC50 [2, 12]: 16 nmol/L
IC50 [3, 13]: 57 nmol/L
IC50 [4, 14]: 153 nmol/L
IC50 (melanoma cells (A2058); [15]): 10 nmol/L
IC50 [5, 16]: 177 nmol/L
IC50 [6, 17]: 6 nmol/L
IC50 [7, 18]: 15 nmol/L
IC50 [8, 19]: 63 nmol/L
IC50 [9, 20]: 35 nmol/L
IC50 [10, 21]: 34 nmol/L

[2H]C1([2H])Oc2cc3nc4c(c(CN)c3cc2O1)Cn1c-4cc2c(c1=O)COC(=O)[C@]2(O)CC [Compound 2an]
IC50 [1, 11]: 0.2 nmol/L
IC50 [2, 12]: 1 nmol/L
IC50 [3, 13]: 1 nmol/L
IC50 [4, 14]: 1 nmol/L
IC50 (melanoma cells (A2058); [15]): 0.5 nmol/L
IC50 [5, 16]: 1 nmol/L
IC50 [6, 17]: 0.2 nmol/L
IC50 [8, 19]: 4 nmol/L
IC50 [9, 20]: 1 nmol/L
IC50 [10, 21]: 1 nmol/L
IC50 (Ls174T cells; Table 24, CellTiter-Glo after 96 h exposure, read-out: IC50 (nmol/L) Ls174T): 6 nmol/L

CC[C@@]1(O)C(=O)OCc2c1cc1n(c2=O)Cc2c-1nc1cc3c(c(Br)c1c2CN)OCO3 [Compound 5c]
IC50 ([2]; read-out: SU-DHL-4 IC50, Table 28, CPT free drugs, B-lymphocyte cancer cells SU-DHL4, 96 h, CellTiter-Glo): 0.5 nmol/L
IC50 ([3]; read-out: BxPC3 IC50, Table 28, CPT free drugs, pancreatic cancer cells BxPC3, 96 h, CellTiter-Glo): 8 nmol/L
IC50 ([4]; read-out: Calu1 IC50): 4 nmol/L
IC50 (melanoma cells (A2058); read-out: A2058 IC50): 5 nmol/L
IC50 ([5]; read-out: MDAMB231 IC50, Table 28, CPT free drugs, breast cancer cells MDA-MB-231, 96 h, CellTiter-Glo): 2 nmol/L
IC50 ([6]; read-out: DEL IC50, Table 28, CPT free drugs, anaplastic large cell lymphoma cells DEL, CellTiter-Glo): 0.3 nmol/L
IC50 ([7]; read-out: L540cy IC50, Table 28, CPT free drugs, Hodgkin's lymphoma cells L540cy, CellTiter-Glo): 0.8 nmol/L
IC50 ([8]; read-out: MOLM-13 IC50, Table 28, CPT free drugs, acute myeloid leukemia cells MOLM-13, 96 h, CellTiter-Glo): 2 nmol/L
IC50 ([9]; read-out: 786-O IC50, Table 28, CPT free drugs, renal carcinoma cells 786-O, 96 h, CellTiter-Glo): 1 nmol/L
IC50 ([10]; read-out: Karpas299 IC50, Table 28, CPT free drugs, anaplastic large cell lymphoma cells Karpas299, 96 h, CellTiter-Glo): 1 nmol/L
IC50 (Ls174T cells; 96 h, read-out: Ls174T IC50, Table 28, Ls174T cells, 96 h, CellTiter-Glo): 6 nmol/L
